These results are taken from patent US20260242335A1, “HETEROCYCLOALKYL BETA-HYDROXY ALKYL AMINES FOR USE IN THE TREATMENT OF HYPERGLYCAEMIA AND DISORDERS CHARACTERISED BY HYPERGLYCAEMIA” (ATROGI AB, priority 2023, published 2026).

The subject of experiment [1] is L6-myotubes. Kind of experiment: Measurement of intracellular cAMP levels (alpha screen cAMP kit) in differentiated cells, compared to isoproterenol. In kind it is cell-based. As to conditions: 0.25 h, compound at 10 μM vs isoproterenol at 10 μM, 15 min stimulation, read-out: Biological example 2: intracellular cAMP level activity compared to that of isoproterenol. The method, then:
(§1) L6-myoblasts were grown in Dulbecco's Modified Eagle's Medium (DMEM) containing 1 g/L glucose supplemented with 10% fetal bovine serum, 2 mM L-Glutamine, 50 U/mL penicillin, […] streptomycin and 10 mM HEPES. Cells were plated at 1×10^5 cells per mL in 24-well plates. After reaching 90% confluence the cells were grown in medium containing 2% FBS for 7 days where upon cells differentiated into myotubes.
Differentiated cells were serum-starved overnight and stimulated with an agonist, final concentration 1×10^−5 M, for 15 min in stimulation buffer (HBSS supplemented with 1% BSA, 5 mM HEPES and 1 mM IBMX, pH 7.4). The medium was aspirated and 100 μL of 95% EtOH was added to each well of the 24-well plate and cells were kept at −20° C. overnight. The EtOH was allowed to evaporate and 500 μL of lysis buffer (1% BSA, 5 mM HEPES and 0.3% Tween-20, pH 7.4) was added to each well. The plate was kept at −80° C. for 30 min and then at −20° C. until the day of detection when the samples were thawed. Intracellular cAMP levels were detected using an alpha screen cAMP kit (6760635D from Perkin Elmer). The activity for each compound is compared to that of isoproterenol.
(In general: Cyclic AMP is a second messenger, typically raised through Gs and lowered through Gi signalling.)

The subject of experiment [2] is L6-myotubes. Kind of experiment: Glucose uptake (3H-2-deoxyglucose) in differentiated L6-myotubes, compared to isoproterenol. The experiment is classed as cell-based. Particulars: compound at 10 μM vs isoproterenol at 10 μM, read-out: Biological example 1: glucose uptake activity compared to that of isoproterenol. Here is the method: as §1
Differentiated L6-myotubes were serum-starved overnight in medium containing 0.5% fatty-acid free BSA and stimulated with an agonist, with a final concentration of 1×10^−5 M. After 1 h 40 min the cells were washed with warm glucose free medium or PBS twice and another portion of agonist was added to the glucose free medium. After 20 min the cells were exposed to 50 nM ^3H-2-deoxyglucose for another 10 min before washed in ice cold glucose free medium or PBS three times and lysed in 400 μL/well 0.2 M NaOH for 1 h at 60° C. The cell lysate was mixed with 4 mL scintillation buffer (Emulsifier Safe, Perkin Elmer) and the radioactivity was detected in a p-counter (Tri-Carb 4810TR, Perkin Elmer). The activity for each compound is compared to that of isoproterenol.

Where a name gives a salt, the structure may show the parent alone. Bounds are passed on as bounds.

On to `CC(C)(C[C@@H]1CCC(=O)NC1)NC[C@H](O)c1cccc(F)c1` [Example 36, (S)-5-(2-(((R)-2-(3-Fluorophenyl)-2-hydroxyethyl)amino)-2-methyl-propyl)piperidin-2-one hydrochloride], for which the values for the Emax at 10 µM with L6-myotubes [1] and in the experiment on L6-myotubes [2] were below 25% and 50 to 75%, respectively.
In the same order, the values of `CC(C)(C[C@@H]1CCC(=O)NC1)NC[C@H](O)c1cncc(F)c1` [Example 37, (S)-5-(2-(((R)-2-(5-Fluoropyridin-3-yl)-2-hydroxyethyl)amino)-2-methylpropyl)piperidin-2-one hydrochloride] are below 25% and above 75%.
For the compound `CC(C)(C[C@H]1CCC(=O)NC1)NC[C@H](O)c1cccc(F)c1` [Example 38, (R)-5-(2-(((R)-2-(3-Fluorophenyl)-2-hydroxyethyl)amino)-2-methyl-propyl)piperidin-2-one hydrochloride], the Emax at 10 µM is below 25% with L6-myotubes [1] and above 75% with L6-myotubes [2].
In the same order, the values of `CC(C)(C[C@H]1CCCN(C(=O)OC(C)(C)C)C1)NC[C@H](O)c1cccc(F)c1` [Example 39, tert-Butyl (R)-3-(2-(((R)-2-(3-fluorophenyl)-2-hydroxyethyl)amino)-2-methylpropyl)piperidine-1-carboxylate] are 25 to 50% and 50 to 75%.
In the same order, the values of `CC(C)(C[C@H]1CCCN(C(=O)OC(C)(C)C)C1)NC[C@H](O)c1cncc(F)c1` [Example 40, tert-Butyl (R)-3-(2-(((R)-2-(5-fluoropyridin-3-yl)-2-hydroxyethyl)-amino)-2-methylpropyl)piperidine-1-carboxylate] are below 25% and above 75%.
In the same order, the values of `CC(C)(CC1CCN(C(=O)C(C)(C)C)CC1)NC[C@H](O)c1cccc(F)c1` [Example 41, (R)-1-(4-(2-((2-(3-Fluorophenyl)-2-hydroxyethyl)amino)-2-methyl-propyl)piperidin-1-yl)-2,2-dimethylpropan-1-one] are below 25% and 25 to 50%.
On to `CC(C)(CC1CCN(C(=O)C(F)(F)F)CC1)NC[C@H](O)c1cccc(F)c1` [Example 42, (R)-2,2,2-Trifluoro-1-(4-(2-((2-(3-fluorophenyl)-2-hydroxyethyl)-amino)-2-methylpropyl)piperidin-1-yl)ethan-1-one], for which the Emax at 10 µM is below 25% in the experiment with L6-myotubes [1] and 25 to 50% in the experiment on L6-myotubes [2].
Consider `COC(=O)N1CCC(CC(C)(C)NC[C@H](O)c2cccc(F)c2)CC1` [Example 43, Methyl (R)-4-(2-((2-(3-fluorophenyl)-2-hydroxyethyl)amino)-2-methyl-propyl)piperidine-1-carboxylate], for which the Emax at 10 µM is below 25% in the experiment with L6-myotubes [1] and 50 to 75% in the experiment on L6-myotubes [2].
In the same order, the values of `CN(C)C(=O)N1CCC(CC(C)(C)NC[C@H](O)c2cccc(F)c2)CC1` [Example 44, (R)-4-(2-((2-(3-Fluorophenyl)-2-hydroxyethyl)amino)-2-methyl-propyl)-N,N-dimethylpiperidine-1-carboxamide hydrochloride] are 50 to 75% and above 75%.
In the same order, the values of `CNC(=O)N1CCC(CC(C)(C)NC[C@H](O)c2cccc(F)c2)CC1` [Example 45, (R)-4-(2-((2-(3-Fluorophenyl)-2-hydroxyethyl)amino)-2-methyl-propyl)-N-methylpiperidine-1-carboxamide] are below 25% and 50 to 75%.
In the same order, the values of `CC(C)(CC1CCNCC1)NC[C@H](O)c1cncc(F)c1` [Example 46, (R)-1-(5-Fluoropyridin-3-yl)-2-((2-methyl-1-(piperidin-4-yl)propan-2-yl)amino)ethan-1-ol] are below 25% and 50 to 75%.
Take `CC(C)(CC1CCN(C(=O)C(C)(C)C)CC1)NC[C@H](O)c1cncc(F)c1` [Example 47, (R)-1-(4-(2-((2-(5-Fluoropyridin-3-yl)-2-hydroxyethyl)amino)-2-methylpropyl)piperidin-1-yl)-2,2-dimethylpropan-1-one dihydrochloride]: the Emax at 10 µM is below 25% in the experiment on L6-myotubes [1] and 50 to 75% with L6-myotubes [2].
In the same order, the values of `CC(C)(CC1CCN(C(=O)C(F)(F)F)CC1)NC[C@H](O)c1cncc(F)c1` [Example 48, (R)-2,2,2-Trifluoro-1-(4-(2-((2-(5-fluoropyridin-3-yl)-2-hydroxyethyl)-amino)-2-methylpropyl)piperidin-1-yl)ethan-1-one dihydrochloride] are below 25% and 50 to 75%.
The like results for `COC(=O)N1CCC(CC(C)(C)NC[C@H](O)c2cncc(F)c2)CC1` [Example 49, Methyl (R)-4-(2-((2-(5-Fluoropyridin-3-yl)-2-hydroxyethyl)amino)-2-methylpropyl)piperidine-1-carboxylate dihydrochloride] were, in that order, below 25% and above 75%.
The like results for `CN(C)C(=O)N1CCC(CC(C)(C)NC[C@H](O)c2cncc(F)c2)CC1` [Example 50, (R)-4-(2-((2-(5-Fluoropyridin-3-yl)-2-hydroxyethyl)amino)-2-methyl-propyl)-N,N-dimethylpiperidine-1-carboxamide dihydrochloride] were, in that order, below 25% and 50 to 75%.
Consider `CNC(=O)N1CCC(CC(C)(C)NC[C@H](O)c2cncc(F)c2)CC1` [Example 51, (R)-4-(2-((2-(5-Fluoropyridin-3-yl)-2-hydroxyethyl)amino)-2-methyl-propyl)-N-methylpiperidine-1-carboxamide dihydrochloride], for which the values for the Emax at 10 µM in the experiment with L6-myotubes [1] and in the experiment on L6-myotubes [2] were below 25% and 50 to 75%, respectively.
The like results for `CC(C)(C[C@H]1CCNC(=O)C1)NC[C@H](O)c1cccc(F)c1` [Example 52, (R)-4-(2-(((R)-2-(3-Fluorophenyl)-2-hydroxyethyl)amino)-2-methyl-propyl)piperidin-2-one] were, in that order, below 25% and 50 to 75%.
In the same order, the values of `CC(C)(C[C@@H]1CCNC(=O)C1)NC[C@H](O)c1cccc(F)c1` [Example 53, (S)-4-(2-(((R)-2-(3-Fluorophenyl)-2-hydroxyethyl)amino)-2-methyl-propyl)piperidin-2-one] are above 75% and above 75%.
The like results for `CC(C)(C[C@H]1CCNC(=O)C1)NC[C@H](O)c1cncc(F)c1` [Example 54, (R)-4-(2-(((R)-2-(5-Fluoropyridin-3-yl)-2-hydroxyethyl)amino)-2-methylpropyl)piperidin-2-one] were, in that order, below 25% and 50 to 75%.
With `CC(C)(C[C@@H]1CCNC(=O)C1)NC[C@H](O)c1cncc(F)c1` [Example 55, (S)-4-(2-(((R)-2-(5-Fluoropyridin-3-yl)-2-hydroxyethyl)amino)-2-methylpropyl)piperidin-2-one], the Emax at 10 µM with L6-myotubes [1] was 50 to 75%; in the experiment with L6-myotubes [2], above 75%.
The like results for `CC(C)(C[C@H]1CCN(C(=O)OC(C)(C)C)C1)NC[C@H](O)c1cccc(F)c1` [Example 56, tert-Butyl (R)-3-(2-(((R)-2-(3-fluorophenyl)-2-hydroxyethyl)amino)-2-methylpropyl)pyrrolidine-1-carboxylate] were, in that order, below 25% and 50 to 75%.
In the same order, the values of `CC(C)(C[C@H]1CCNC1)NC[C@H](O)c1cccc(F)c1` [Example 57, (R)-1-(3-Fluorophenyl)-2-((2-methyl-1-((R)-pyrrolidin-3-yl)propan-2-yl)amino)ethan-1-ol] are below 25% and above 75%.
The like results for `CC(=O)N1CC[C@H](CC(C)(C)NC[C@H](O)c2cccc(F)c2)C1` [Example 58, 1-((R)-3-(2-(((R)-2-(3-Fluorophenyl)-2-hydroxyethyl)amino)-2-methylpropyl)pyrrolidin-1-yl)ethan-1-one] were, in that order, below 25% and above 75%.
On to `CC(C)(C[C@H]1CCN(S(C)(=O)=O)C1)NC[C@H](O)c1cccc(F)c1` [Example 59, (R)-1-(3-Fluorophenyl)-2-((2-methyl-1-((R)-1-(methylsulfonyl)-pyrrolidin-3-yl)propan-2-yl)amino)ethan-1-ol], for which the results for the Emax at 10 µM with L6-myotubes [1] and in the experiment with L6-myotubes [2] were below 25% and above 75%, respectively.
On to `CC(C)(C[C@H]1CCN(C(=O)OC(C)(C)C)C1)NC[C@H](O)c1cncc(F)c1` [Example 60, tert-Butyl (R)-3-(2-(((R)-2-(5-fluoropyridin-3-yl)-2-hydroxyethyl)-amino)-2-methylpropyl)pyrrolidine-1-carboxylate], for which the values for the Emax at 10 µM in the experiment with L6-myotubes [1] and in the experiment with L6-myotubes [2] were below 25% and 50 to 75%, respectively.
